Values quoted from earlier work in US20120263806A1, “Uses of North American Ginseng Fractions for Treating Leukemia” (priority 2007, published 2012).

Legend:
[1] = system: Adriamycin (ADM)-resistant P388 leukemia cells (P388/ADM)
[2] = system: telomerase activity of K562 cells; details: at proper concentrations and exposure time

Structure (SMILES) | Cytotoxicity of the anti-cancer drugs (DAU, VBL) in P388/ADM cells [1] | other results
CC(C)=CCC[C@](C)(O)[C@H]1CC[C@]2(C)[C@@H]1[C@H](O)C[C@@H]1[C@@]3(C)CC[C@H](O)C(C)(C)[C@@H]3[C@@H](O)C[C@]12C [20(8) protopanaxatriol] | greatly enhanced | –
O=P1(N(CCCl)CCCl)NCCCO1 (stereo not shown) [CTX, cyclophosphamide] | – | Telomerase activity of K562 cells [2]: completely inhibit
CC(C)=CC/C=C(/C)[C@H]1CC[C@]2(C)[C@@H]1[C@H](O)C[C@@H]1[C@@]3(C)CC[C@H](O)C(C)(C)[C@@H]3[C@@H](O)C[C@]12C [Quasipanaxatriol] | greatly enhanced | Resistance indices (ratios of IC50 values for P388/ADM and P388 parental cells) for DAU and VBL ([1]; 50 μM): decreased significantly
CC(C)=CCC[C@](C)(O)[C@H]1CC[C@]2(C)[C@@H]1[C@H](O)C[C@@H]1[C@@]3(C)CC[C@H](O[C@@H]4O[C@H](CO)[C@@H](O)[C@H](O)[C@H]4O[C@@H]4O[C@H](CO)[C@@H](O)[C@H](O)[C@H]4O)C(C)(C)[C@@H]3CC[C@]12C [Rg(3)] | – | TPA-induced activation of NF-kappaβ in HL-60 cells (NF-kappaβ): inhibited
CC(C)=CCC[C@](C)(O[C@@H]1O[C@H](CO)[C@@H](O)[C@H](O)[C@H]1O)[C@H]1CC[C@]2(C)[C@@H]1[C@H](O)C[C@@H]1[C@@]3(C)CC[C@H](O)C(C)(C)[C@@H]3CC[C@]12C [compound K] | greatly enhanced | –
CC(C)=CCC[C@](C)(O)[C@H]1CC[C@]2(C)[C@@H]1[C@H](O)C[C@@H]1[C@@]3(C)CC[C@H](O[C@@H]4O[C@H](CO)[C@@H](O)[C@H](O)[C@H]4O)C(C)(C)[C@@H]3CC[C@]12C [ginsenoside Rh2] | greatly enhanced | –
